The subject of one data set is chaperone assemblies. Description: Kinetics of chaperone-zelavespib assembly taken from Phase 1 clearance. Details: species or system mouse. The following applies: in vivo, fast off-rate. The method, then:
Figure 1 Biodistribution of zelavespib in MDA-MB-468 tumor-bearing mice. (a) Biodistribution of [^124I]-Zelavespib in MDA-MB-468 tumors, organs, tissues, and plasma as per ref. [32]. Data are presented as means ± s.d., five mice per time point. Curves for blood, lung, heart, muscle, bone, and brain were fitted using a one-phase decay equation, and kinetics of zelavespib clearance were determined. Tumor curve was fitted to a two-phase exponential decay. k, kfast, and kslow are the rate constants. Half-life (T1/2) is computed as ln(2)/k. […] (b) Illustrative schematic showing the distinct binding kinetics of zelavespib to epichaperomes (slow off-rate) and to chaperone assemblies (fast off-rate). The tumor pharmacokinetics profile recorded in the Phase 2 interval may represent a direct reflection of the in vivo kinetics of target–drug unbinding. koff, kinetic rate constant for dissociation of an epichaperome-zelavespib assembly. Rt, retention time. […]

A further data set relates to epichaperome. Nature of the data set: Target occupancy by zelavespib using tracer [131I]-PU-AD and gamma counting in MDA-MB-468 tumors. The settings on record: for target occupancy: MDA-MB-468 tumor, 50 mg/kg; for target occupancy, accounting for background signal: background radioactivity of normal tissues (heart) subtracted. Format: in vivo, mouse. The protocol:
MDA-MB-468 (RRID:CVCL_0419) tumor xenografts were established on the forelimbs of female athymic nude mice (Hsd:Athymic Nude-Foxn1^nu; Envigo; 5 weeks old; RRID:MGI:5652489) by subcutaneous (s.c.) injection of 7 × 10^6 cells in a 300 µL cell suspension of a 1:1 v/v mixture of PBS with reconstituted basement membrane (BD Matrigel^TM, Collaborative Biomedical Products Inc., Bedford, MA, USA). Tumor progression was monitored using vernier calipers. For biodistribution studies, female athymic nude mice with MDA-MB-468 tumor xenografts (~200–300 mm^3) on the forelimbs were injected intravenously in the tail vein with zelavespib (50 mg/kg (PU-H71.HCl formulated in 10 mM Phosphate Buffer, pH = ~6.4)) at different time points (0 (co-injection), 6, 24, and 48 h) prior to tracer administration. At designated time points post-drug administration, mice were injected intravenously in the tail vein with 0.93–1.1 MBq (25–50 µCi) of [^131I]-PU-AD in 200 µL of 5% ethanol in saline. The activity in the syringe before and after administration was assayed in a dose calibrator (CRC-15R; Capintec, Florham Park, NJ, USA) to determine by difference the actual activity administered to each animal. Animals were euthanized by CO2 asphyxiation at 24 h post-administration of the radiolabeled [^131I]-PU-AD tracer, and organs, including tumor(s), were harvested and weighed. ^131I was measured in a 2480 WIZARD automatic gamma counter (PerkinElmer, Waltham, MA, USA) using a 260–430 keV energy window. Count data were background- and decay-corrected to the time of injection, and the percent injected dose per gram (%ID/g) for each tissue sample was calculated using a measured ^131I calibration factor to convert count rate to activity and the activity was normalized to the activity injected and the weighed mass of the sample to yield the activity concentration in %ID/g.
The drug could be trapped in non-tumor areas (i.e., stroma or necrotic tissue) or be intracellular but not target-bound. To test this notion and determine the percentile target occupied by each of these intratumoral concentrations of zelavespib, we performed studies in which tracer amounts (that is, non-pharmacologically perturbing amounts) of the radiolabeled epichaperome ligand [^131I]-PU-AD (~6 ng/g which is ~1/10,000 of the therapeutic zelavespib amount) were administered to mice intravenously 24 h prior to tumor zelavespib measurements (Figure 2a). The ^131I isotope has a half-life of 8 days, making it suitable for measurements of drugs with an extended tumor retention profile, such as that observed for zelavespib. It emits γ radiation and β particles; thus, γ-counting can be applied to detect and quantify the radioactive signal in tumors and tissues upon mouse sacrifice. Because both zelavespib and [^131I]-PU-AD bind to the same target, the epichaperome, the more zelavespib that is present in the tumor and is target-bound, the lower the radioactivity signal is in the tumor.
Figure 3 Relationship between molar concentration and target engagement in MDA-MB-468 tumor-bearing mice. (a) Tumor molar concentrations of zelavespib experimentally determined by LC–MS/MS upon administration of single-dose 50 mg/kg zelavespib and sacrificing the mice at 30 h, 48 h, and 72 h post-zelavespib administration (n = 5 mice per time-point). Data are presented as means ± s.e.m., n = 5, one-way ANOVA with Dunnett’s post hoc. Controls: PU-24h, mice were injected 50 mg/kg zelavespib, and tumor concentrations of the drug were determined at 24 h post-injection using LC–MS/MS. Vehicle, mice were injected vehicle only. (b) Target engagement by zelavespib was determined by co-injection of zelavespib with a trace amount of [^131I]-PU-AD. Zelavespib was administered 6, 24, and 48 h prior to [^131I]-PU-AD. […]

Details of data set [1]: method as in PMID 28808818. The settings on record: human patients, no dependency on dose level; cited from earlier work.

In the case of `CC(C)NCCCn1c(Sc2cc3c(cc2I)OCO3)nc2c(N)ncnc21` [zelavespib], in the data set with chaperone assemblies, the “T1/2, chaperone-zelavespib assembly” value is ~ 3 h and the “k Phase 1, chaperone-zelavespib assembly” value is recorded as ~ 0.2 h^-1. Besides, in the data set with epichaperome (30 h post single 50 mg/kg i.v.), the target occupancy amounted to 38.8% and the “target occupancy, accounting for background signal” value (from here on “target occupancy, accounting”) came to 41.5%. Also, in the data set on epichaperome (48 h post single 50 mg/kg i.v.), the target occupancy was found to be 24.9% and the “target occupancy, accounting” value is 22.4%. Besides, the “target occupancy, accounting” value in the data set with epichaperome (72 h post single 50 mg/kg i.v.) came out at 3.5%. The “remaining intratumoral zelavespib that is target-bound” value with epichaperome (72 h post-injection) is “about 50%”. For the same compound, in data set [1], the “mean terminal half-life (T1/2) in the plasma” value is given as 8.4 ± 3.6 h.

Values taken from paper PMC10604720, “Unraveling the Mechanism of Epichaperome Modulation by Zelavespib: Biochemical Insights on Target Occupancy and Extended Residence Time at the Site of Action” (Biomedicines, 2023).
